# Experiments:
# [1] = test system: progressing desmoid tumors/aggressive fibromatosis (DT/AF); assay type: in vivo
# Text: A Phase 3, double-blind, placebo-controlled study is being conducted to determine the efficacy and safety of nirogacestat dihydrobromide in participants with progressing desmoid tumors. A Phase 1 solid tumor study provided preliminary efficacy (Messersmith, W., et al., “A Phase I, dose-finding study in patients with advanced solid malignancies of the oral y-secretase inhibitor PF-03084014,” Clin. Cancer Res., 21:60-7 (2015)), including long-term durable responses and safety of nirogacestat in desmoid participants (Villalobos, V. M., et al., “Long-Term Follow-Up of Desmoid Fibromatosis Treated with PF-03084014, an Oral Gamma Secretase Inhibitor, Ann. Surg. Oncol., 25:768-75 (2018)). These encouraging results lead to a Phase 2 study in participants with progressing desmoid tumors (Kummar, S., et al., “Clinical Activity of the γ-Secretase Inhibitor PF-03084014 in Adults with Desmoid Tumors (Aggressive Fibromatosis), J. Clin. Oncol., 35:1561-69 (2017)). […] Importantly, participants in the responder group had failed previous systemic therapies (imatinib or sorafenib) indicating a need for alterative therapeutic options for this patient population.
# Overall Design: The Phase 3 study will be a multi-center, randomized, double-blind, placebo-controlled, event-driven to compare the efficacy, safety, and tolerability of nirogacestat and placebo in adult participants with progressing DT/AF. This study will consist of 2 phases, a double-blind and an optional open-label extension (OLE) phase.
# Following disease progression (confirmed by central review using RECIST v1.1), or completion of the double-blind phase (once the required number of events have been observed and the primary PFS analysis has been completed), participants' treatment assignment will be unblinded, and if eligible, participants will have the option to enroll in the optional OLE phase.
# Type of Participant and Disease Characteristics: • 1. Participant has DT/AF that has progressed by ≥20% as measured by RECIST v1.1 within the 12-month period prior to first dose of study treatment. • 2. Participant has: • a. Newly diagnosed, measurable progressing DT/AF that is not amenable to surgical resection or radiation therapy; • OR • b. Recurrent, progressing DT/AF following CR to initial therapy; • OR • c. Preexisting DT/AF and has previously received therapy and the residual tumor has progressed. • 3. Participant agrees to provide archival or new tumor tissue for confirmation of disease. • 4. If participant was previously treated with an investigational therapy for treatment of DT/AF, participant must have completed prior therapy at least 28 days prior to signing informed consent. All toxicities from prior therapy must resolve to Grade 1 or baseline. • 5. Participants who are receiving nonsteroidal anti-inflammatory drugs (NSAIDs) as treatment for conditions other than DT/AF must be receiving them prior to the observed progression (inclusion criteria 1) for: • a. Chronic scheduled daily use (defined as stable for 28 days prior to signing informed consent); or • b. Occasional use (defined as ≤3 days per week) for the treatment of pain or as an anti-inflammatory in licensed conditions such as headache, arthritis, etc. • c. Participant has an Eastern Cooperative Oncology Group (ECOG) performance status ≤2 at screening. • 6. Participant has adequate organ and bone marrow function as defined by the following Screening laboratory values: • a. Absolute neutrophil count ≥1500/μL; • b. Platelets ≥100×10^3/μL; • c. Hemoglobin ≥9 g/dL; • d. Total bilirubin ≤1.5×upper limit of normal (ULN) (isolated bilirubin >1.5×ULN is acceptable if bilirubin is fractionated and direct bilirubin <35%); • e. Aspartate aminotransferase (AST) (serum glutamic oxaloacetic transaminase)/alanine aminotransferase (ALT) (serum glutamic pyruvate transaminase)≤2×ULN; and • f. […] Participant can swallow tablets and has no gastrointestinal conditions affecting absorption. […]
# [2] = test system: progressing desmoid tumors; conditions: Phase 2, participants with progressing desmoid tumors; cited from earlier work
# [3] = 150 mg twice daily, positive change indicates improvement
# [4] = change from Baseline in EORTC, P: <0.001
smiles,measurement,setting,value
"CCC[C@H](N[C@H]1CCc2cc(F)cc(F)c2C1)C(=O)Nc1cn(C(C)(C)CNCC(C)(C)C)cn1 (single isomer, unassigned) [nirogacestat]","mean change from Baseline in EORTC, Global health status/Quality of life (GHS/QoL)",[1]; [3],4.493
same,"mean change from Baseline in EORTC, QLQ30 Role Functioning",[1]; [3],11.133
same,"mean change from Baseline in EORTC, QLQC30 Physical Functioning",[1]; [3],8.523
same,"LS mean difference (between nirogacestat and placebo), Global health status/Quality of life (GHS/QoL)","[1]; change from Baseline in EORTC, P: 0.007",10.515
same,"LS mean difference (between nirogacestat and placebo), QLQ30 Role Functioning",[1]; [4],16.714
same,"LS mean difference (between nirogacestat and placebo), QLQC30 Physical Functioning",[1]; [4],13.154
same,most frequent adverse reactions requiring a dose reduction or interruption,[1]; in vivo,"diarrhea, rash maculo-papular, hypophosphatemia, stomatitis, folliculitis, and fatigue"
same,"progression-free survival (PFS), hazard ratio (HR)","[1]; nirogacestat 150 mg twice daily over placebo, <0.001",0.29
same,objective response rate (ORR),"[1]; nirogacestat 150 mg twice daily versus placebo, p<0.001",statistically significant improvements
same,four different quality of life (QoL) assessments and patient-reported outcomes (PROs),"[1]; nirogacestat 150 mg twice daily versus placebo, p<0.001 for each",statistically significant improvements
same,participants progressing while on therapy,[2],no participants progressing while on therapy
same,response rate,[2],29%
same,tumor shrinkage as measured by magnetic resonance imaging (MRI),[2],significant tumor shrinkage
